*1 amine or outer side, *2 acyl side, *3 side chain or, on linkers, in order; H or OH if unused. Where a SMILES comes first, the peptide text is derived from it. Bridges are numbered along the chain shown (N, C = ends). [ ]: non-standard residue; d: D form. The star is where a group is joined. hPhe(3-Cl-4-CF3) = N[C@@H](CCc1ccc(C(F)(F)F)c(Cl)c1)C(=O)O; NPrPhe(4-CF3) = CCCN[C@@H](Cc1ccc(C(F)(F)F)cc1)C(=O)O; NPrAsp = CCCN([C@@H](CC(=O)[*:3])C(=O)[*:2])[*:1]; NMeGly(cPent) = CN[C@H](C(=O)O)C1CCCC1; NMeNva = CCC[C@H](NC)C(=O)O; Morpholide = C1CN(*)CCO1; Ac4c = NC1(C(=O)O)CCC1; Sar = CNCC(=O)O
Tests used:
[1] = target: GDP-bound HRAS wild-type protein (Homo sapiens, UniProt P01112); assay: Binding to HRAS by surface plasmon resonance (SPR), Single Cycle Kinetics; settings: ratio of KD for GDP-bound HRAS wild-type protein to KD for KRAS, SPR
[2] = target: GDP-bound NRAS wild-type protein (Homo sapiens, UniProt P01111); assay: Binding to NRAS by surface plasmon resonance (SPR), Single Cycle Kinetics; settings: ratio of KD for GDP-bound NRAS wild-type protein to KD for KRAS, SPR
[3] = target: GDP-bound KRAS wild-type protein (Homo sapiens, UniProt P01116); assay: Binding to KRAS by surface plasmon resonance (SPR), Single Cycle Kinetics; settings: SPR, Single Cycle Kinetics, GDP-bound KRAS wild-type protein; read-out: KRAS KD
[4] = test system: human lung cancer strain NCI-H441; assay: cells; settings: NCI-H441, 96 h, read-out: NCI-H441 IC50 (nM), NCI-H441 cell proliferation, 4 days, CellTiter-Glo;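 also: cell proliferation inhibition after four days measured by CellTiter-Glo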

Sequence of GDP-bound KRAS wild-type protein (P01116 whole entry): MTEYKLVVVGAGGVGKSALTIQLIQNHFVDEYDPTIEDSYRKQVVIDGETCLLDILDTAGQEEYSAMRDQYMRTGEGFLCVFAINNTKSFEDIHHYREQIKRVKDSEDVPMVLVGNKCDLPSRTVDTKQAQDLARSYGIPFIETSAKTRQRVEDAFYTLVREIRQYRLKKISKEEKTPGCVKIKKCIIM
Sequence of GDP-bound HRAS wild-type protein (P01112 whole entry): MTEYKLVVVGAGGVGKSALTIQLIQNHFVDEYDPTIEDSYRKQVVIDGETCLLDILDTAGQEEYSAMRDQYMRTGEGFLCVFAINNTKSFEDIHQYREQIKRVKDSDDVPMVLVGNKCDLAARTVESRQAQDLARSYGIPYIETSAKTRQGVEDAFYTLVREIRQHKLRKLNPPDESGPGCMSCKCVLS
Sequence of GDP-bound NRAS wild-type protein (P01111 whole entry): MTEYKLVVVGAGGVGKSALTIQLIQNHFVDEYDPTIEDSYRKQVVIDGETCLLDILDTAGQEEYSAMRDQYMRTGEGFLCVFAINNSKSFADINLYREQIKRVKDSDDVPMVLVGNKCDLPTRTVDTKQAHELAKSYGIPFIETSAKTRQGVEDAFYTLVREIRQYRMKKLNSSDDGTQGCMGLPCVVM

CCO[C@@H]1C[C@H]2C(=O)NC3(CC(C)(C)C3)C(=O)N(C)[C@@H](C3CCCC3)C(=O)N(C)[C@H](C(=O)N(C)CC)CC(=O)N(C)[C@@H](COC)C(=O)N[C@@H]([C@@H](C)CC)C(=O)N(C)CC(=O)N(C)[C@H]3C/C=C\CCN(C3=O)[C@@H](Cc3ccc(C(F)(F)F)cc3)C(=O)N(C)CC(=O)N[C@@H](CCc3ccc(C(F)(F)F)c(OC)c3)C(=O)N2C1 [PP1679]
HRAS/KRAS (KD ratio) [1]: A (a compound having 10 or more and less than 20 is denoted as A)
NRAS/KRAS (KD ratio) [2]: A (a compound having 10 or more and less than 20 is denoted as A)
Kd [3]: 0.065 nM
IC50 [4]: 3.1 nM

CCCN(C)C(=O)[C@@H]1CC(=O)N(C)[C@@H](COCC)C(=O)N[C@@H]([C@@H](C)CC)C(=O)N(C)CC(=O)N(C)[C@H]2C/C=C\CCN(C2=O)[C@@H](Cc2ccc(C(F)(F)F)cc2)C(=O)N(C)CC(=O)N[C@@H](CCc2cc(F)c(C(F)(F)F)c(F)c2)C(=O)N2C[C@H](OCC)C[C@H]2C(=O)NC2(CCC2)C(=O)N(C)[C@@H](C2CCCC2)C(=O)N1C [PP1988]
HRAS/KRAS (KD ratio) [1]: A (a compound having 10 or more and less than 20 is denoted as A)
NRAS/KRAS (KD ratio) [2]: A (a compound having 10 or more and less than 20 is denoted as A)
Kd [3]: 0.06 nM
IC50 [4]: 11 nM

CCO[C@@H]1C[C@H]2C(=O)NC3(CC(C)(C)C3)C(=O)N(C)[C@@H](C3CCCC3)C(=O)N(C)[C@H](C(=O)N(C)C)CC(=O)N3CCCCC[C@H]3C(=O)N[C@@H]([C@@H](C)CC)C(=O)N(C)CC(=O)N(C)[C@H]3C/C=C\CCN(C3=O)[C@@H](Cc3ccc(C(F)(F)F)cc3)C(=O)N(C)CC(=O)N[C@@H](CCc3cc(F)c(C(F)(F)F)c(F)c3)C(=O)N2C1 [PP1915]
HRAS/KRAS (KD ratio) [1]: A (a compound having 10 or more and less than 20 is denoted as A)
NRAS/KRAS (KD ratio) [2]: A (a compound having 10 or more and less than 20 is denoted as A)
Kd [3]: 0.31 nM
IC50 [4]: 18.5 nM

CC[C@H](C)[C@@H]1NC(=O)[C@H](CC(C)C)N(C)C(=O)C[C@@H](C(=O)N(C)CC)N(C)C(=O)[C@H](C2CCCC2)N(C)C(=O)C2(CCC2)NC(=O)[C@@H]2C[C@@H](C)CN2C(=O)[C@H](CCc2ccc(C(F)(F)F)c(OC)c2)NC(=O)CN(C)C(=O)[C@H](Cc2ccc(C)cc2)N2CC/C=C\C[C@@H](C2=O)N(C)C(=O)CN(C)C1=O [PP1907]
HRAS/KRAS (KD ratio) [1]: A (a compound having 10 or more and less than 20 is denoted as A)
NRAS/KRAS (KD ratio) [2]: AA (a compound having 20 or more is denoted as AA)
Kd [3]: 0.17 nM
IC50 [4]: 23.6 nM

CCO[C@@H]1C[C@H]2C(=O)NC3(CCC3)C(=O)N(C)[C@@H](C(CC)CC)C(=O)N(C)[C@H](CC)CC(=O)N(C)[C@@H](CC3CC3)C(=O)N[C@@H]([C@@H](C)CC)C(=O)N(C)CC(=O)N(C)[C@H]3C/C=C\CCN(C3=O)[C@@H](Cc3ccc(C(F)(F)F)cc3)C(=O)N(C)CC(=O)N[C@@H](CCc3cc(F)c(C(F)(F)F)c(F)c3)C(=O)N2C1 [PP1630]
HRAS/KRAS (KD ratio) [1]: A (a compound having 10 or more and less than 20 is denoted as A)
NRAS/KRAS (KD ratio) [2]: A (a compound having 10 or more and less than 20 is denoted as A)
Kd [3]: 1.8 nM
IC50 [4]: 144 nM

CC[C@H](C)[C@@H]1NC(=O)[C@H](CC)N(C)C(=O)C[C@@H](C(=O)N(C)CC)N(C)C(=O)[C@H](C2CCCC2)N(C)C(=O)C2(CC(C)(C)C2)NC(=O)[C@@H]2C[C@H](C)CN2C(=O)[C@H](CCc2ccc(C(F)(F)F)c(OC)c2)NC(=O)CN(C)C(=O)[C@H](Cc2ccc(C)cc2)N2CC/C=C\C[C@@H](C2=O)N(C)C(=O)CN(C)C1=O [PP1868]
HRAS/KRAS (KD ratio) [1]: B (a compound having 3 or more and less than 10 is denoted as B)
NRAS/KRAS (KD ratio) [2]: A (a compound having 10 or more and less than 20 is denoted as A)
Kd [3]: 0.087 nM
IC50 [4]: 10.7 nM

CCC[C@H]1C(=O)N[C@@H]([C@@H](C)CC)C(=O)N(C)CC(=O)N(C)[C@H]2C/C=C\CCN(C2=O)[C@@H](Cc2ccc(C(F)(F)F)cc2)C(=O)N(C)CC(=O)N[C@@H](CCc2ccc(C(F)(F)F)c(Cl)c2)C(=O)N2C[C@H](OCC)C[C@H]2C(=O)NC2(CC(C)(C)C2)C(=O)N(C)[C@@H](C2CCCC2)C(=O)N(C)[C@H](C(=O)N(C)C)CC(=O)N1C [PP1748]
HRAS/KRAS (KD ratio) [1]: B (a compound having 3 or more and less than 10 is denoted as B)
NRAS/KRAS (KD ratio) [2]: A (a compound having 10 or more and less than 20 is denoted as A)
Kd [3]: 0.062 nM
IC50 [4]: 3.1 nM

CCO[C@@H]1C[C@H]2C(=O)NC3(CC(C)(C)C3)C(=O)N(C)[C@@H](C3CCCC3)C(=O)N(C)[C@H](C(=O)N(CC)CC)CC(=O)N(C)[C@@H](CC)C(=O)N[C@@H]([C@@H](C)CC)C(=O)N(C)CC(=O)N(C)[C@H]3C/C=C\CCN(C3=O)[C@@H](Cc3ccc(C)cc3)C(=O)N(C)CC(=O)N[C@@H](CCc3ccc(C(F)(F)F)c(Cl)c3)C(=O)N2C1 [PP1883]
HRAS/KRAS (KD ratio) [1]: A (a compound having 10 or more and less than 20 is denoted as A)
NRAS/KRAS (KD ratio) [2]: A (a compound having 10 or more and less than 20 is denoted as A)
Kd [3]: 0.28 nM
IC50 [4]: 24 nM

CCCC[C@H]1C(=O)N[C@@H]([C@@H](C)CC)C(=O)N(C)CC(=O)N(C)[C@H]2C/C=C\CCN(C2=O)[C@@H](Cc2ccc(C(F)(F)F)cc2)C(=O)N(C)CC(=O)N[C@@H](CCc2cc(F)c(C(F)(F)F)c(F)c2)C(=O)N2C[C@@H](C)C[C@H]2C(=O)NC2(CC(C)(C)C2)C(=O)N(C)[C@@H](C2CCCC2)C(=O)N(C)[C@H](C(=O)N(C)C)CC(=O)N1C [PP1661]
HRAS/KRAS (KD ratio) [1]: A (a compound having 10 or more and less than 20 is denoted as A)
NRAS/KRAS (KD ratio) [2]: A (a compound having 10 or more and less than 20 is denoted as A)
Kd [3]: 0.19 nM
IC50 [4]: 5.7 nM

CC[C@H](C)[C@@H]1NC(=O)[C@H](CCOC)N(C)C(=O)C[C@@H](C(=O)N(C)CC)N(C)C(=O)[C@H](C2CCCC2)N(C)C(=O)C2(CC(C)(C)C2)NC(=O)[C@@H]2C[C@H](C)CN2C(=O)[C@H](CCc2ccc(C(F)(F)F)c(OC)c2)NC(=O)CN(C)C(=O)[C@H](Cc2ccc(C(F)(F)F)cc2)N2CC/C=C\C[C@@H](C2=O)N(C)C(=O)CN(C)C1=O [PP1999]
HRAS/KRAS (KD ratio) [1]: B (a compound having 3 or more and less than 10 is denoted as B)
NRAS/KRAS (KD ratio) [2]: A (a compound having 10 or more and less than 20 is denoted as A)
Kd [3]: 0.13 nM
IC50 [4]: 26.6 nM

CCC[C@H]1C(=O)N[C@@H]([C@@H](C)CC)C(=O)N(C)CC(=O)N(C)CC(=O)N(CCC)[C@@H](Cc2ccc(C(F)(F)F)cc2)C(=O)N(C)CC(=O)N[C@@H](CCc2ccc(C(F)(F)F)c(Cl)c2)C(=O)N2CCC[C@H]2C(=O)NC2(CCC2)C(=O)N(C)[C@@H](C2CCCC2)C(=O)N(CCC)[C@H](C(=O)N2CCOCC2)CC(=O)N1C [PP1954] ([NMeNva]I[Sar][Sar][NPrPhe(4-CF3)][Sar][hPhe(3-Cl-4-CF3)]P[Ac4c][NMeGly(cPent)][NPrAsp]-Morpholide; lactam N-11)
HRAS/KRAS (KD ratio) [1]: B (a compound having 3 or more and less than 10 is denoted as B)
NRAS/KRAS (KD ratio) [2]: B (a compound having 3 or more and less than 10 is denoted as B)
Kd [3]: 0.77 nM
IC50 [4]: 8.1 nM

— patent US20240158446A1, “CYCLIC COMPOUND HAVING SELECTIVE INHIBITORY ACTION ON KRAS OVER HRAS AND NRAS” (CHUGAI SEIYAKU KABUSHIKI KAISHA, priority 2021, published 2024)
